How the values were obtained:
[1] = system: IFNα activation of STAT1 in PBMC; test: IFNα activation of STAT1 in PBMC; type: cell-based; settings: Homo sapiens; IFNα activation of STAT1 in PBMC; average IC50; read-out: IFNα signaling inhibitory potency IC50
Method in brief: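 Human PBMC, with red cells lysed by NH4Cl, were pre-treated with compound for 30 min at 37 °C and 5% CO2. They were then stimulated for 30 min with recombinant human IFNα at 5 ng/mL final.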

[2] = target: T1, Recombinant human TYK2 catalytic domain (amino acids 871-1187) (Homo sapiens, UniProt P29597); test: TYK2 ADPglo kinase assay; type: biochemical; also: 12 µM ATP
T1 construct: catalytic domain (amino acids 871-1187)
T1 sequence (P29597 871-1187): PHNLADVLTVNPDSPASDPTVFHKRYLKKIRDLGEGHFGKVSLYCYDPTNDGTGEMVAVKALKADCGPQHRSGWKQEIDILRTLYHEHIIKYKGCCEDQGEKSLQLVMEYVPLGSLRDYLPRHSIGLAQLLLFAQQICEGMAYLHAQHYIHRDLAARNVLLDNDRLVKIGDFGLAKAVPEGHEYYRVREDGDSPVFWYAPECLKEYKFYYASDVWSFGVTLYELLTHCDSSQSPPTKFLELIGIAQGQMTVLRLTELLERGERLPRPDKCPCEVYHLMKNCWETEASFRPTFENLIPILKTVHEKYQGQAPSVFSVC
Procedure: After 120 min at room temperature, reactions were stopped and the remaining ATP is depleted by adding 5 μL/well of ADP Glo Reagent (Promega, catalog number V912B). After 40 min at room temperature, 10 μl Kinase Detection Reagent (Kinase Detection Substrate (Promega, catalog number V914B) dissolved in Kinase Detection Buffer (Promega, catalog number V913B)) is added to convert ADP to ATP and to measure this newly synthesized ATP in a luciferase/luciferin reaction. Readout is performed after 30 min incubation at room temperature using the Envision. Kinase activity is calculated by subtracting the relative light units (RLU) obtained in the presence of a positive control inhibitor (10 μM staurosporine) from the RLU obtained in the presence of vehicle. The ability of a test compound to inhibit this activity (or percentage inhibition) is determined as:
RLU test compound=RLU determined for sample with test compound present
RLU control=RLU determined for sample with positive control inhibitor
RLU vehicle=RLU determined in the presence of vehicle
Dose dilution series were prepared for the compounds enabling the testing of dose-response effects in the TYK2 assay and the calculation of the IC50 for the compound. Each compound is routinely tested at concentration of 20 μM followed by a 1/5 serial dilution, 10 points in a final concentration of 1% DMSO. […] The data are expressed as the average IC50 from the assays.

[3] = system: IL-12 activation of STAT4 in NK-92 cells; test: IL-12 activation of STAT4 in NK-92 cells using AphaLISA SureFire technology; type: cell-based; settings: Homo sapiens, NK92; IL-12 activation of STAT4 in NK-92 cells, AlphaLISA SureFire; average IC50; read-out: IL12 pSTAT4 IC50
Method in brief: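 NK-92 cells, starved of rhIL-2 overnight, were stimulated with rhIL-12 for 30 min at 37 °C with test compounds, then lysed. Phospho-STAT4 (Tyr693) was read by AlphaLISA SureFire. Percent inhibition versus the vehicle-plus-trigger signal was fitted by sigmoidal nonlinear regression to give IC50, averaged over experiments.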

[4] = target: Recombinant human JAK3 catalytic domain (amino acids 781-1124) (Homo sapiens, UniProt P52333); test: JAK3 inhibition assay; type: biochemical
Method in brief: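 Radiometric kinase reaction run 45 min at 30° C., stopped with phosphoric acid; activity as vehicle cpm minus 10 μM staurosporine cpm.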

[5] = target: T1, Recombinant human TYK2 catalytic domain (amino acids 871-1187); test: TYK2 radioactive assay polyGT substrate; type: biochemical; also: 0.1 µM ATP
Method in brief: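 Reaction at 30° C. for 120 min, ended with 150 mM phosphoric acid, washed, counted; percent inhibition scaled between vehicle and 10 μM staurosporine cpm.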

[6] = target: T2, Recombinant human JAK1 (catalytic domain, amino acids 866-1154) (Homo sapiens, UniProt P23458); test: JAK1 inhibition assay; type: biochemical; settings: read-out: JAK1 potency IC50
T2 construct: catalytic domain, amino acids 866-1154

[7] = system: IL-12 activation of STAT4 in NK-92 cells; test: IL-12 activation of STAT4 in NK-92 cells using MSD as readout; type: cell-based; settings: Homo sapiens, NK92; NK-92 cells, rhIL-12 25 ng/mL, MSD readout; read-out: IL12 pSTAT4 IC50
Procedure: IL-2 is added freshly to the medium with each medium refreshment step. Cells are cultured in a humidified incubator at 37° C. 5% CO2.
NK-92 cells are pre-incubated with test compounds or vehicle for 30 min at 37° C. 5% CO2. […] NK-92 cells are triggered with rhIL-12 for 45 min at 37° C. 5% CO2.
After 45 min of cytokine stimulation the cells are lysed by addition of 50 μL ice-cold lysis buffer (supplemented with the MSD kit). Plates are frozen at −80° C. for minimal 1 hour to lyse the cells completely. After thawing the levels of phospho-STAT4 are quantified using the Phospho-STAT4 (Tyr693) kit (MSD, Catalogue number K150PAD-2) according to the manufacturer's instructions. Electroluminescent signal is measured on the MSD reader.
The percentage inhibition is calculated as: […]
RLU (trigger/veh): Relative lumescent signal determined in presence of vehicle and trigger
RLU (test compound): Relative luminescent signal determined in presence of test compounds)
PIN values are plotted for compounds tested in dose-response and IC50 values are derived using LIMS Software applying non-linear regression (sigmoidal) curve fitting. The data are expressed as the average IC50 from different experiments.

[8] = target: T3, Recombinant human JAK2 (catalytic domain, amino acids 808-1132) (Homo sapiens, UniProt O60674); test: JAK2 inhibition assay; type: biochemical; settings: read-out: JAK2 potency IC50; also: 0.7 µM ATP
T3 construct: catalytic domain, amino acids 808-1132
T3 sequence (O60674 808-1132): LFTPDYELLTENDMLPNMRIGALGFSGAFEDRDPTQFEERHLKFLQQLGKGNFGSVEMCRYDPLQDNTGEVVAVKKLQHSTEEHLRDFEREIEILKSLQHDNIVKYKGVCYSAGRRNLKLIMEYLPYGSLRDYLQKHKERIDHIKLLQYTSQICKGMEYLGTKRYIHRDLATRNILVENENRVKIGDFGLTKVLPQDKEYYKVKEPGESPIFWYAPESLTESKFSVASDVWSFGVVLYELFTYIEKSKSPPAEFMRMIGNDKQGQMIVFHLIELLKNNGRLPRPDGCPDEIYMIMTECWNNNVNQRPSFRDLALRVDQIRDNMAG

Sequence of Recombinant human JAK3 catalytic domain (amino acids 781-1124) (P52333 781-1124): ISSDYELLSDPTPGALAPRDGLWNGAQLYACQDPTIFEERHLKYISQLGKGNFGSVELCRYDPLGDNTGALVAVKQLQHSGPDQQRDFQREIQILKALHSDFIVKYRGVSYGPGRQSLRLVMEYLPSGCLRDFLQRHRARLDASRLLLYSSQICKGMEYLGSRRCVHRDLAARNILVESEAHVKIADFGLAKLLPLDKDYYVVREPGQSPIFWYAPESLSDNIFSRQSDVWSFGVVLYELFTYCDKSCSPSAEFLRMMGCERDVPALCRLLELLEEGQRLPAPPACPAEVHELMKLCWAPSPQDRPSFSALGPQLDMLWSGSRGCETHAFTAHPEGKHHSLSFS
T2 sequence (P23458 866-1154): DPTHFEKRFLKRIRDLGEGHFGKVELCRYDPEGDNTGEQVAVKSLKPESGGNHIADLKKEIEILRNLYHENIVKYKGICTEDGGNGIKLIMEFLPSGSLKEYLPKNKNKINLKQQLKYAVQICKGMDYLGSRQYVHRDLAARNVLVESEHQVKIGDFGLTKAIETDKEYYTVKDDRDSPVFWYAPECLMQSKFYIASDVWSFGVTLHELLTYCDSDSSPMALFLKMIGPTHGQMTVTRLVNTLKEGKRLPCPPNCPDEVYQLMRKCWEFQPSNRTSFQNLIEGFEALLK

Compound	IC50 [2]	IC50 [3]	IC50 [4]	IC50 [5]	IC50 [6]	IC50 [7]	IC50 [8]	IC50 [1]
Cc1cc(C#N)ncc1Oc1cc(Nc2ccc(N3CC4CCC(C3)O4)nn2)c2ncn(C)c2n1 [Compound 170, 4-methyl-5-[3-methyl-7-[[6-(8-oxa-3-azabicyclo[3.2.1]octan-3-yl)pyridazin-3-yl]amino]imidazo[4,5-b]pyridin-5-yl]oxypyridine-2-carbonitrile]	1.46 nM	73 nM	–	–	–	–	–	83 nM
CC1COCCC1N(C)c1cc(Nc2cc(N)ncn2)c2ncn(C)c2n1 (stereo not drawn) [Compound 19, N7-(6-Amino-pyrimidin-4-yl)-3,N5-dimethyl-N5-(3-methyl-tetrahydro-pyran-4-yl)-3H-imidazo[4,5-b]pyridine-5,7-diamine]	–	72 nM	231 nM	10.7 nM	80.9 nM	806 nM	11.2 nM	–
Cc1cc(C#N)ncc1Oc1cc(Nc2ccc(N3CCOC(CO)C3)nn2)c2ncn(C)c2n1 (stereo not drawn) [Compound 169, 5-[7-[[6-[2-(hydroxymethyl)morpholin-4-yl]pyridazin-3-yl]amino]-3-methylimidazo[4,5-b]pyridin-5-yl]oxy-4-methylpyridine-2-carbonitrile]	1.47 nM	665 nM	–	–	–	–	–	147 nM
Cc1cc(C#N)ncc1Oc1cc(Nc2ccc(N3CCCOCC3)nn2)c2ncn(C)c2n1 [Compound 167, 4-methyl-5-[3-methyl-7-[[6-(1,4-oxazepan-4-yl)pyridazin-3-yl]amino]imidazo[4,5-b]pyridin-5-yl]oxypyridine-2-carbonitrile]	2.55 nM	88 nM	–	–	–	–	–	129 nM
Cc1cc(C#N)ncc1Oc1cc(Nc2ccc(C(=O)N3CCN(C4CC4)CC3)cn2)c2ncn(C)c2n1 [Compound 48, 5-[7-[[5-(4-cyclopropylpiperazine-1-carbonyl)pyridin-2-yl]amino]-3-methylimidazo[4,5-b]pyridin-5-yl]oxy-4-methylpyridine-2-carbonitrile]	0.48 nM	56 nM	–	0.84 nM	–	–	–	63 nM
Cc1cc(C#N)ncc1Oc1cc(Nc2ccc(N3CCO[C@@H](CO)C3)nn2)c2ncn(C)c2n1 [Compound 163, 5-[7-[[6-[(2R)-2-(hydroxymethyl)morpholin-4-yl]pyridazin-3-yl]amino]-3-methylimidazo[4,5-b]pyridin-5-yl]oxy-4-methylpyridine-2-carbonitrile]	1.06 nM	–	–	–	–	–	–	–
Cc1cc(C#N)ncc1Oc1cc(Nc2ccc(N3CCO[C@H](CO)C3)nn2)c2ncn(C)c2n1 [Compound 165, 5-[7-[[6-[(2S)-2-(hydroxymethyl)morpholin-4-yl]pyridazin-3-yl]amino]-3-methylimidazo[4,5-b]pyridin-5-yl]oxy-4-methylpyridine-2-carbonitrile]	1.09 nM	–	–	–	–	–	–	–
CCNC(=O)c1ccc(Nc2cc(Oc3cnc(C#N)cc3C)nc3c2ncn3C)nn1 [Compound 23, 6-[5-(6-Cyano-4-methyl-pyridin-3-yloxy)-3-methyl-3H-imidazo[4,5-b]pyridin-7-ylamino]-pyridazine-3-carboxylic acid ethylamide]	–	–	2930 nM	18.3 nM	234 nM	248 nM	66.7 nM	160 nM

Further lines, with some results ahead:

IC50 [2]	IC50 [3]	IC50 [4]	IC50 [5]	IC50 [6]	IC50 [7]	IC50 [8]	Compound	IC50 [1]
1.3 nM	33 nM	–	–	–	–	–	Cc1cc(C#N)ncc1Oc1cc(Nc2ccc(N3CCOC(C(C)C)C3)nn2)c2ncn(C)c2n1 (stereo in doubt) [Compound 173, 4-methyl-5-[3-methyl-7-[[6-[(2R)-2-propan-2-ylmorpholin-4-yl]pyridazin-3-yl]amino]imidazo[4,5-b]pyridin-5-yl]oxypyridine-2-carbonitrile]	114 nM
0.88 nM	127 nM	–	–	–	–	–	Cc1cc(C#N)ncc1Oc1cc(Nc2ccc(N3CCOC(C#N)C3)nn2)c2ncn(C)c2n1 (stereo not drawn) [Compound 171, 4-[6-[[5-(6-cyano-4-methylpyridin-3-yl)oxy-3-methylimidazo[4,5-b]pyridin-7-yl]amino]pyridazin-3-yl]morpholine-2-carbonitrile]	45 nM
2.64 nM	137 nM	–	–	–	–	–	Cc1cc(C#N)ncc1Oc1cc(Nc2ccc(N3CCOC(C)(C)C3)nn2)c2ncn(C)c2n1 [Compound 175, 5-[7-[[6-(2,2-dimethylmorpholin-4-yl)pyridazin-3-yl]amino]-3-methylimidazo[4,5-b]pyridin-5-yl]oxy-4-methylpyridine-2-carbonitrile]	94 nM
0.92 nM	58 nM	–	–	–	–	–	Cc1cc(C#N)ncc1Oc1cc(Nc2ccc(N3CCO[C@H](C)C3)nn2)c2ncn(C)c2n1 [Compound 172, 4-methyl-5-[3-methyl-7-[[6-[(2R)-2-methylmorpholin-4-yl]pyridazin-3-yl]amino]imidazo[4,5-b]pyridin-5-yl]oxypyridine-2-carbonitrile]	66 nM
1.03 nM	61 nM	–	–	–	–	–	Cc1cc(C#N)ncc1Oc1cc(Nc2ccc(N3C[C@@H]4C[C@H]3CO4)nn2)c2ncn(C)c2n1 [Compound 174, 4-methyl-5-[3-methyl-7-[[6-[(1S,4S)-2-oxa-5-azabicyclo[2.2.1]heptan-5-yl]pyridazin-3-yl]amino]imidazo[4,5-b]pyridin-5-yl]oxypyridine-2-carbonitrile]	72 nM
1.2 nM	24 nM	–	–	–	–	–	Cc1cc(C#N)ncc1Oc1cc(Nc2ccc(N3CCOC(C(C)C)C3)nn2)c2ncn(C)c2n1 (stereo in doubt) [Compound 177, 4-methyl-5-[3-methyl-7-[[6-[(2S)-2-propan-2-ylmorpholin-4-yl]pyridazin-3-yl]amino]imidazo[4,5-b]pyridin-5-yl]oxypyridine-2-carbonitrile]	71 nM
